Earlier results, collected in patent publication US9937154B2, “Use of telmisartan to prevent and treat graft versus host disease and other alloimmune and autoimmune diseases” (Hackensack University Medical Center, priority 2015, dated 2018).
“Also recorded” adds a separate entry of the source. Structures can show the parent of a compound that is named as a salt. Where two headings read alike, the source gives them in different places.

Experiments:
[1] = in vivo; cited from earlier work
[2] = system: neutrophil migration; details: cited from earlier work
[3] = system: ROCK; details: cited from earlier work
[4] = target: T1, ROCK II (Homo sapiens, UniProt O75116); details: cited from earlier work
T1 sequence (O75116 whole entry): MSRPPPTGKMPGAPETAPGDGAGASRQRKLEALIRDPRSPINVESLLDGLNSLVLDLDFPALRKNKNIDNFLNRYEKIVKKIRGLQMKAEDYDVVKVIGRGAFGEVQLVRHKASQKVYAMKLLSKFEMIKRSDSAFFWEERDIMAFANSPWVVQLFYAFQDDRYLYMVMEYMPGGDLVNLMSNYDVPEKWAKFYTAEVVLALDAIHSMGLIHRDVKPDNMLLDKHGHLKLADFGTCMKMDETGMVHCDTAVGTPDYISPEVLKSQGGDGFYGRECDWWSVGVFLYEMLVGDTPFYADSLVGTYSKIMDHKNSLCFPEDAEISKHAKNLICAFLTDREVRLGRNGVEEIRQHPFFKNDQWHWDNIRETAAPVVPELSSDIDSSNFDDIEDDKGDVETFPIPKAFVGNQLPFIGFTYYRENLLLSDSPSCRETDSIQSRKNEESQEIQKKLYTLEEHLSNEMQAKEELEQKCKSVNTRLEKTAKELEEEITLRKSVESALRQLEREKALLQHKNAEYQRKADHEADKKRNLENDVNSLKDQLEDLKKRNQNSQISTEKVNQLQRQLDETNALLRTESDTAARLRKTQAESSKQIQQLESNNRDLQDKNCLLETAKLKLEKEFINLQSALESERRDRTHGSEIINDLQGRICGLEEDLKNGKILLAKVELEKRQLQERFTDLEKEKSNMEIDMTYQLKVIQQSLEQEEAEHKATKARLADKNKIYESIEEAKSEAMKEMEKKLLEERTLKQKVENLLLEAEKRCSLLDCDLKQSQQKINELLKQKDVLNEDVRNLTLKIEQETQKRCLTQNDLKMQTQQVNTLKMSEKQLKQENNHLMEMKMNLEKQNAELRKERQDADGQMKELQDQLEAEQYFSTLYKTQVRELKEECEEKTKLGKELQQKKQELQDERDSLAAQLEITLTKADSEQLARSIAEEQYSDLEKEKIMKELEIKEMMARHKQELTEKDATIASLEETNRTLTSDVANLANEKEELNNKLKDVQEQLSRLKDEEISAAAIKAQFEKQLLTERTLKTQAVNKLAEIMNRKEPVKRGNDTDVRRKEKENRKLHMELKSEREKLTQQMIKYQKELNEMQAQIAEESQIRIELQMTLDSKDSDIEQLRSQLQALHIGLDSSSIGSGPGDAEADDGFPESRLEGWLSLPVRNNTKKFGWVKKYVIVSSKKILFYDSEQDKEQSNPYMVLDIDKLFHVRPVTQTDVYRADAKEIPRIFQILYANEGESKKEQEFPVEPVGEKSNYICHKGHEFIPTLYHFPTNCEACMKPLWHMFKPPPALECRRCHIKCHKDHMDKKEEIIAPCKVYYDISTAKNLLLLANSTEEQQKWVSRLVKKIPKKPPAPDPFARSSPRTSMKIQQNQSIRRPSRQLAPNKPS

[5] = system: transplant patients (IT GVHD); details: cited from earlier work
[6] = system: rat models of inflammatory and noninflammatory arthritic pain; details: cited from earlier work
[7] = target: human ROCK I (Homo sapiens, UniProt Q13464); details: cited from earlier work
human ROCK I, sequence (Q13464 whole entry): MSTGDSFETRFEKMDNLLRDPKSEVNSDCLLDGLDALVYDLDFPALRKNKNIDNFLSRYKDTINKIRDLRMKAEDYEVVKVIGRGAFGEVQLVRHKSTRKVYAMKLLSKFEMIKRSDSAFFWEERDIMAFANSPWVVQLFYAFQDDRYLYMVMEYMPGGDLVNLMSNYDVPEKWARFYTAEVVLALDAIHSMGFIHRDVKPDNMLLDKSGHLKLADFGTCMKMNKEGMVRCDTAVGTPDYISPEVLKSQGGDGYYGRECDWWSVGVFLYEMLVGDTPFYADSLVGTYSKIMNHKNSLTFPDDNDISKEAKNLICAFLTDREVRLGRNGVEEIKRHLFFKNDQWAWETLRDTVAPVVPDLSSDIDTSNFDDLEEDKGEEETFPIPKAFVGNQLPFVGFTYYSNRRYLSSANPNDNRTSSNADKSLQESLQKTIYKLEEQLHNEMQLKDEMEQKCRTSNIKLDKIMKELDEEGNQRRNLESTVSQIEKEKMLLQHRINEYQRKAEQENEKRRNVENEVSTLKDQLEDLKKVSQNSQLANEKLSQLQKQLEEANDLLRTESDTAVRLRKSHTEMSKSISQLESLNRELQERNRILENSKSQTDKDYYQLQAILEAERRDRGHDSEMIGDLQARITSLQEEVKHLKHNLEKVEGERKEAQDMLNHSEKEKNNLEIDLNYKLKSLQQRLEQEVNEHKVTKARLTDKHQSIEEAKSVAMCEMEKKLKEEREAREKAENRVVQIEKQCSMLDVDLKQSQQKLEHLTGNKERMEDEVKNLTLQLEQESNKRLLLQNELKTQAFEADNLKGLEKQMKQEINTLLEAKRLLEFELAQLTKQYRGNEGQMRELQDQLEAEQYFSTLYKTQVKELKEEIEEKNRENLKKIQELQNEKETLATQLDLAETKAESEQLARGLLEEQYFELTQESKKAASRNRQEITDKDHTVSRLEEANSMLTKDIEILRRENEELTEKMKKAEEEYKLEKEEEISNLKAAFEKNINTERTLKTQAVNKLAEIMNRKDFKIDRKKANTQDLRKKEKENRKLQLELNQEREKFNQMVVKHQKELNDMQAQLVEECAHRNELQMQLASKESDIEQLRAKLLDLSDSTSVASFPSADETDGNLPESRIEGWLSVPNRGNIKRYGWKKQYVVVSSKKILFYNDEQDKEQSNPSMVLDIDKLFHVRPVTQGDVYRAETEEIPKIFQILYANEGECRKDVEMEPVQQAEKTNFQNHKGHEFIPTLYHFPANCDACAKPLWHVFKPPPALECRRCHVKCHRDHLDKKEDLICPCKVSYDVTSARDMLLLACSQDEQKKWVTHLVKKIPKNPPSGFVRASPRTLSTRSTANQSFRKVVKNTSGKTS

[8] = target: T1, ROCK II; details: cited from earlier work; remark: listed apart in the source
[9] = system: preconstricted rat aorta; details: cited from earlier work
[10] = system: rat model of hypertension; details: cited from earlier work

In the case of Cl.O=c1[nH]ccc2c(S(=O)(=O)N3CCCNCC3)cccc12 [HA 1100 hydrochloride], the vasodilatory effects [1] is given as “potent vasodilatory effects” and the neutrophil migration [2] is given as “inhibit neutrophil migration”.

For c1ccc2c(-c3ccncc3)c[nH]c2c1 [Rockout®], the IC50 ([3]; ATP-competitive, reversible) is listed as 25000 nM and the “effect on the activation of ROCK” value [3] is listed as “does not inhibit the activation of ROCK”.

For Cc1cncc2cccc(S(=O)(=O)N3CCCN(C(=O)CN)C[C@@H]3C)c12 [Glycyl-H-1152 dihydrochloride], the IC50 [4] is given as 11.8 nM.

In the case of maraviroc, the “IT GVHD and acute (within 100 days) death” value [5] is given as “prevented IT GVHD and acute (within 100 days) death; also recorded: no acute deaths”.

In the case of O=C(Nc1ccc(-c2ccncc2)cc1)N[C@H](CO)c1ccccc1 [AS 1892802], the analgesic effects [6] is given as “exhibits analgesic effects”, the IC50 [7] is given as 122 nM and the IC50 [8] is given as 52 nM.

In the case of CCn1c(-c2nonc2N)nc2cnc(Oc3cccc(NC(=O)c4ccc(OCCN5CCOCC5)cc4)c3)cc21 [GSK 269962], the vasorelaxation [9] is given as “induce vasorelaxation” and the blood pressure [10] is given as “lower blood pressure”.
